PubChem BioAssay (NCI)
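Grown in 96-well plates, cells were treated for 48 hours with each compound at five concentrations. Insufficient inhibition: endpoint recorded as highest concentration tested. Here, GI50 denotes the concentration required for 50% inhibition of growth. TGI is the concentration that stops growth completely.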

Columns and labels:
Assay in all cases: NCI anticancer screen, dose series, 48 h
[1] = tested on: 786-0 renal
[2] = tested on: A498 renal
[3] = tested on: A549 NSCLC
[4] = tested on: ACHN renal
[5] = tested on: BT-549 breast
[6] = tested on: CAKI-1 renal
[7] = tested on: CCRF-CEM leukemia
[8] = tested on: COLO 205 colon
[9] = tested on: DU-145 prostate
[10] = tested on: EKVX NSCLC
[11] = tested on: HCC-2998 colon
[12] = tested on: HCT-116 colon
[13] = tested on: HCT-15 colon
[14] = tested on: HL-60(TB) leukemia
[15] = tested on: HOP-62 NSCLC
[16] = tested on: HOP-92 NSCLC
[17] = tested on: HS 578T breast
[18] = tested on: IGROV1 ovarian
[19] = tested on: K-562 leukemia
[20] = tested on: KM12 colon
[21] = tested on: LOX IMVI melanoma
[22] = tested on: M14 melanoma
[23] = tested on: MALME-3M melanoma
[24] = tested on: MCF7 breast
[25] = tested on: MDA-MB-231 breast
[26] = tested on: MDA-MB-435
[27] = tested on: MDA-MB-468 breast
[28] = tested on: MOLT-4 leukemia
[29] = tested on: NCI-H226 lung
[30] = tested on: NCI-H23 lung
[31] = tested on: NCI-H460 lung
[32] = tested on: NCI-H522 lung
[33] = tested on: OVCAR-3 ovarian
[34] = tested on: OVCAR-4 ovarian
[35] = tested on: OVCAR-5 ovarian
[36] = tested on: OVCAR-8 ovarian
[37] = tested on: PC-3 prostate
[38] = tested on: RPMI-8226 leukemia
[39] = tested on: RXF 393 renal
[40] = tested on: SF-268 CNS
[41] = tested on: SF-295 CNS
[42] = tested on: SF-539 CNS
[43] = tested on: SK-MEL-2 melanoma
[44] = tested on: SK-MEL-28 melanoma
[45] = tested on: SK-MEL-5 melanoma
[46] = tested on: SK-OV-3 ovarian
[47] = tested on: SN12C renal
[48] = tested on: SNB-19 CNS
[49] = tested on: SNB-75 CNS
[50] = tested on: SR leukemia
[51] = tested on: SW-620 colon
[52] = tested on: TK-10 renal
[53] = tested on: U251 CNS
[54] = tested on: UACC-257 melanoma
[55] = tested on: UACC-62 melanoma
[56] = tested on: UO-31 renal

Compound: CSc1ccccc1NC(=O)c1ccc2nnn(/C(C#N)=C/c3ccccn3)c2c1
- GI50 [1]: 1.82 µM
- TGI [1]: 3.38 µM
- GI50 [2]: 15.3 µM
- TGI [2]: 28.6 µM
- GI50 [3]: 10.2 µM
- TGI [3]: 23.6 µM
- GI50 [4]: 1.78 µM
- TGI [4]: 3.17 µM
- GI50 [5]: 2.32 µM
- TGI [5]: 7.2 µM
- GI50 [6]: 1.55 µM
- TGI [6]: 2.92 µM
- GI50 [7]: 3 µM
- TGI [7]: > 100 µM
- GI50 [8]: 2.02 µM
- TGI [8]: 3.63 µM
- GI50 [9]: 1.93 µM
- TGI [9]: 3.64 µM
- GI50 [10]: 4.59 µM
- TGI [10]: 16.1 µM
- GI50 [11]: 1.78 µM
- TGI [11]: 3.33 µM
- GI50 [12]: 1.8 µM
- TGI [12]: 3.46 µM
- GI50 [13]: 1.67 µM
- TGI [13]: 3.54 µM
- GI50 [14]: 1.9 µM
- TGI [14]: 5.97 µM
- GI50 [15]: 15.7 µM
- TGI [15]: 30.9 µM
- GI50 [16]: 1.89 µM
- TGI [16]: 7.5 µM
- GI50 [17]: 3.29 µM
- TGI [17]: 13.3 µM
- GI50 [18]: 2.07 µM
- TGI [18]: 4.46 µM
- GI50 [19]: 1.84 µM
- TGI [19]: 6.86 µM
- GI50 [20]: 3.08 µM
- TGI [20]: 10.7 µM
- GI50 [21]: 1.7 µM
- TGI [21]: 3.19 µM
- GI50 [22]: 2 µM
- TGI [22]: 3.98 µM
- GI50 [23]: 1.75 µM
- TGI [23]: 3.29 µM
- GI50 [24]: 1.69 µM
- TGI [24]: 3.36 µM
- GI50 [25]: 1.99 µM
- TGI [25]: 4.06 µM
- GI50 [26]: 2.07 µM
- TGI [26]: 4.89 µM
- GI50 [27]: 1.6 µM
- TGI [27]: 3.32 µM
- GI50 [28]: 3.29 µM
- TGI [28]: 9.07 µM
- GI50 [29]: 13.9 µM
- TGI [29]: 32.9 µM
- GI50 [30]: 1.8 µM
- TGI [30]: 3.52 µM
- GI50 [31]: 3.24 µM
- TGI [31]: 11.1 µM
- GI50 [32]: 1.56 µM
- TGI [32]: 3.22 µM
- GI50 [33]: 1.77 µM
- TGI [33]: 3.48 µM
- GI50 [34]: 4.22 µM
- TGI [34]: 17.3 µM
- GI50 [35]: 1.84 µM
- TGI [35]: 3.91 µM
- GI50 [36]: 3.34 µM
- TGI [36]: 12.7 µM
- GI50 [37]: 4.09 µM
- TGI [37]: 16.6 µM
- GI50 [38]: 3.14 µM
- TGI [38]: > 100 µM
- GI50 [39]: 1.5 µM
- TGI [39]: 2.86 µM
- GI50 [40]: 11.5 µM
- TGI [40]: 28.7 µM
- GI50 [41]: 15.5 µM
- TGI [41]: 28.8 µM
- GI50 [42]: 1.84 µM
- TGI [42]: 3.54 µM
- GI50 [43]: 2.25 µM
- TGI [43]: 5.22 µM
- GI50 [44]: 1.86 µM
- TGI [44]: 3.75 µM
- GI50 [45]: 3.37 µM
- TGI [45]: 12.1 µM
- GI50 [46]: 18.6 µM
- TGI [46]: 33.8 µM
- GI50 [47]: 3.87 µM
- TGI [47]: 14.1 µM
- GI50 [48]: 13.4 µM
- TGI [48]: 26.2 µM
- GI50 [49]: 10.1 µM
- TGI [49]: 21.7 µM
- GI50 [50]: 2.51 µM
- TGI [50]: 9.46 µM
- GI50 [51]: 1.86 µM
- TGI [51]: 3.54 µM
- GI50 [52]: 1.75 µM
- TGI [52]: 3.25 µM
- GI50 [53]: 3.61 µM
- TGI [53]: 12.9 µM
- GI50 [54]: 2.02 µM
- TGI [54]: 5.3 µM
- GI50 [55]: 1.83 µM
- TGI [55]: 3.84 µM
- GI50 [56]: 1.55 µM
- TGI [56]: 2.89 µM
